{"source": "patent US10408837B2", "about": "(priority 2013, dated 2019)", "target": "BoNT/E (Clostridium botulinum, UniProt Q00496)", "note": "Values joined by “and” are separate entries in the source; they are usually repeats but may differ in a detail not shown here. Identical values can stand only once.", "data": [{"sequence": "IIIGNLGNEIDTQNRQIDRIMAKAKSKKR [Pep-52]", "values": [{"measurement": "Relative product", "value": "581 and 511"}]}]}
